Among the data in patent publication US12678446B2 (PFIZER INC., priority 2020, dated 2026) are EC50 and CC50 values, retold here.

As a reminder, the EC50 is the concentration needed to bring the measured effect to its halfway point. The term CC50 denotes the concentration giving 50% cytotoxicity.

Bounds are passed on as bounds.

Data set [1] relates to RSV (RSV A2 ECACC, 0709161v). Nature of the data set: RSV plaque reduction assay. In kind it is cell-based, respiratory syncytial virus. The settings on record: human respiratory syncytial virus, HepG2, read-out: RSV A2 Plaque EC50, RSV A2 in Hep-G2 cells; mean of at least two experiments unless noted (n = 1). As for the experimental part:
Compounds w ere subjected to RSV plaque reduction assays according to the following protocol.
Hep-G2 cells (ECACC, 85011430) were passaged in flasks and seeded in 24-well plates in DMEM containing antibiotics and supplemented with 10% FBS. During inoculation and subsequent incubation, cells were cultured in DMEM containing 2% FBS. 100 plaque forming unit/well of RSV (RSV A2 ECACC, 0709161v) was mixed with eight serial dilutions of compound. Subsequently, 100 μL of the virus/compound mixtures was added to confluent Hep-G2 cell monolayers. The cells and virus/compound mixtures were incubated at 37° C. in a humidified 5% CO2 incubator for 2 h prior to removal of the inoculum and addition of 1 mL of overlay (DMEM containing 2% FBS and 0.8% CMC) containing compound dilutions. The cells and were incubated at 37° C. in a humidified 5% CO2 incubator for 2 days.
Cells were washed with PBS before adding 75/25% v/v EtOH MeOH, for 3 min. Fixative was removed and plates were washed with PBS. A pre-titrated amount of the primary antibody was added in 200 μL PBS/2% milk powder, and plates incubated for 90 min at 37° C. The plates were washed 3 times with PBS/0.05% Tween20 before addition of rabbit anti-goat horse radish peroxidase in 200 μL PBS/2% milk powder, and incubated for 1 h at 37° C. Following three wash steps with PBS/0.05% Tween20, 200 μL ready-to-use TrueBlue was added and plates were incubated at rt for 10-15 min before washing with water. After removal of water, plates were air-dried in the dark.
Plates were scanned and analysed using the Immunospot S6 Macro analyser, which is equipped with BioSpot analysis software for counting immunostained plaques (virospots). Plaque counts were used to calculate % infection relative to the mean of the plaque count in the virus control wells for RSV. […] Unless otherwise noted, plaque EC50 and cell toxicity CC50 values are a mean of at least two experiments and figures are rounded to whole units.
(Plaques are areas of infected cells; plaque reduction assays count them against a control.)

The nature of data set [2]: cell toxicity CC50. In kind it is cell-based. The settings on record: human; Hep-G2 cells; mean of at least two experiments; read-out: Cell Cytotoxicity CC50.

In the case of `CN(C)CC1COc2c(C(=O)N[C@H]3N=C(c4ccccc4)c4cccc(F)c4NC3=O)c(-c3ccccc3F)nn2C1` (stereo in doubt) [Example 171-1, (6R*)-6-[(Dimethylamino)methyl]-N-[(3S)-9-fluoro-2-oxo-5-phenyl-1,3-dihydro-1,4-benzodiazepin-3-yl]-2-(2-fluorophenyl)-6,7-dihydro-5H-pyrazolo[5,1-b][1,3]oxazine-3-carboxamide], the EC50 in data set [1] is 0.053 µM. Also, in data set [2], the CC50 is over 25 µM.

Consider `O=C(N[C@H]1N=C(c2ccccc2)c2ccccc2NC1=O)c1c(-c2ccc(F)cc2F)nn2c1OCCC2` [Example 1, 2-(2,4-Difluorophenyl)-N-[(3S)-2-oxo-5-phenyl-1,3-dihydro-1,4-benzodiazepin-3-yl]-6,7-dihydro-5H-pyrazolo[5,1-b][1,3]oxazine-3-carboxamide], for which the EC50 in data set [1] is 0.033 µM. Moreover, the CC50 in data set [2] was over 25 µM.

`O=C(N[C@H]1N=C(c2ccccc2)c2cccc(F)c2NC1=O)c1c(-c2ccc(F)cc2F)nn2c1OCCC2` [Example 2, 2-(2,4-Difluorophenyl)-N-[(3S)-9-fluoro-2-oxo-5-phenyl-1,3-dihydro-1,4-benzodiazepin-3-yl]-6,7-dihydro-5H-pyrazolo[5,1-b][1,3]oxazine-3-carobxamide]: in data set [1], the EC50 was determined as 0.022 µM. For the same compound, the CC50 in data set [2] is over 25 µM.

For `CC(C)Nc1ccc(-c2nn3c(c2C(=O)N[C@H]2N=C(c4ccccc4)c4cccc(F)c4NC2=O)OCCC3)c(F)n1` [Example 4, N-[(3S)-9-Fluoro-2-oxo-5-phenyl-1,3-dihydro-1,4-benzodiazepin-3-yl]-2-[2-fluoro-6-(propan-2-ylamino)pyridin-3-yl]-6,7-dihydro-5H-pyrazolo[5,1-b][1,3]oxazine-3-carboxamide], the EC50 in data set [1] worked out at 0.029 µM. Further, the CC50 in data set [2] was over 25 µM.

With `CC1(C)CCn2nc(-c3ccccc3F)c(C(=O)N[C@H]3N=C(c4ccccc4)c4cccc(F)c4NC3=O)c2O1` [Example 5, N-[(3S)-9-fluoro-2-oxo-5-phenyl-2,3-dihydro-1H-1,4-benzodiazepin-3-yl]-2-(2-fluorophenyl)-5,5-dim ethyl-5H,6H,7H-pyrazolo[3,2-b][1,3]oxazine-3 carboxamide], in data set [1], the EC50 is 0.054 µM. For the same compound, in data set [2], the CC50 is over 25 µM.

`Cc1ccccc1-c1nn2c(c1C(=O)N[C@H]1N=C(c3ccccc3)c3cccc(F)c3NC1=O)OCCC2` [Example 6, N-[(3S)-9-Fluoro-2-oxo-5-phenyl-1,3-dihydro-1,4-benzodiazepin-3-yl]-2-(2-methylphenyl)-6,7-dihydro-5H-pyrazolo[5,1-b][1,3]oxazine-3-carboxamide]: the EC50 in data set [1] was 0.165 µM. Besides, the CC50 in data set [2] is over 25 µM.

With `O=C(N[C@H]1N=C(c2ccccc2)c2cccc(F)c2NC1=O)c1c(-c2ccccc2F)nn2c1OC1(CC2)CC1` [Example 7, N-[(3S)-9-fluoro-2-oxo-5-phenyl-1,3-dihydro-1,4-benzodiazepin-3-yl]-2-(2-fluorophenyl)spiro[6,7-dihydropyrazolo[5,1-b][1,3]oxazine-5,1′-cyclopropane]-3-carboxamide], the EC50 in data set [1] came to 0.032 µM. For the same compound, in data set [2], the CC50 is over 25 µM.

Consider `CC(C)C1CCn2nc(-c3ccccc3F)c(C(=O)N[C@H]3N=C(c4ccccc4)c4cccc(F)c4NC3=O)c2O1` (stereo partly drawn) [Example 8, N-[(3S)-9-fluoro-2-oxo-5-phenyl-2,3-dihydro-1H-1,4-benzodiazepin-3-yl]-2-(2-fluorophenyl)-5-(propan-2-yl)-5H,6H,7H-pyrazolo[3,2-b][1,3]oxazine-3-carboxamide], for which, in data set [1], the EC50 came out at 0.037 µM. Moreover, the CC50 in data set [2] is over 25 µM.

As to `C[C@@H]1COc2c(C(=O)N[C@H]3N=C(c4ccccc4)c4cccc(F)c4NC3=O)c(-c3ccccc3F)nn2C1` [Example 9, (6S)-N-[(3S)-9-fluoro-2-oxo-5-phenyl-1,3-dihydro-1,4-benzodiazepin-3-yl]-2-(2-fluorophenyl)-6-methyl-6,7-dihydro-5H-pyrazolo[5,1-b][1,3]oxazine-3-carboxamide], the EC50 in data set [1] amounted to 0.03 µM. Further, the CC50 in data set [2] is over 18.8 µM.

Turning to `C[C@H]1COc2c(C(=O)N[C@H]3N=C(c4ccccc4)c4cccc(F)c4NC3=O)c(-c3ccccc3F)nn2C1` [Example 10, (6R)-N-[(3S)-9-fluoro-2-oxo-5-phenyl-1,3-dihydro-1,4-benzodiazepin-3-yl]-2-(2-fluorophenyl)-6-methyl-6,7-dihydro-5H-pyrazolo[5,1-b][1,3]oxazine-3-carboxamide], the EC50 in data set [1] was determined as 0.023 µM. For the same compound, in data set [2], the CC50 is over 25 µM.

As for `CCC1COc2c(C(=O)N[C@H]3N=C(c4ccccc4)c4cccc(F)c4NC3=O)c(-c3ccccc3F)nn2C1` (stereo partly drawn) [Example 11, 6-Ethyl-N-[(3S)-9-fluoro-2-oxo-5-phenyl-2,3-dihydro-1H-1,4-benzodiazepin-3-yl]-2-(2-fluorophenyl)-5H,6H,7H-pyrazolo[3,2-b][1,3]oxazine-3-carboxamide], the EC50 in data set [1] was 0.033 µM. In addition, in data set [2], the CC50 was over 25 µM.

Consider `CC(C)C1COc2c(C(=O)N[C@H]3N=C(c4ccccc4)c4cccc(F)c4NC3=O)c(-c3ccccc3F)nn2C1` (stereo partly drawn) [Example 12, N-[(3S)-9-Fluoro-2-oxo-5-phenyl-2,3-dihydro-1H-1,4-benzodiazepin-3-yl]-2-(2-flurophenyl)-6-(propan-2-yl)-5H,6H,7H-pyrazolo[3,2-b][1,3]oxazine-3-carboxamide], for which the EC50 in data set [1] amounted to 0.039 µM. For the same compound, the CC50 in data set [2] was over 25 µM.

As for `O=C(N[C@H]1N=C(c2ccccc2)c2cccc(F)c2NC1=O)c1c(-c2ccccc2F)nn2c1OCC1(CC1)C2` [Example 13], in data set [1], the EC50 was determined as 0.028 µM. Besides, the CC50 in data set [2] is over 24 µM.

Regarding `CCCC1COc2c(C(=O)N[C@H]3N=C(c4ccccc4)c4cccc(F)c4NC3=O)c(-c3ccccc3F)nn2C1` (stereo partly drawn) [Example 14, N-[(3S)-9-fluoro-2-oxo-5-phenyl-2,3-dihydro-1H-1,4-benzodiazepin-3-yl]-2-(2-fluorophenyl)-6-propyl-5H,6H,7H-pyrazolo[3,2-b][1,3]oxazine-3-carboxamide], in data set [1], the EC50 was determined as 0.036 µM. Moreover, the CC50 in data set [2] was over 25 µM.

As for `O=C(N[C@H]1N=C(c2ccccc2)c2cccc(F)c2NC1=O)c1c(-c2ccc(NC3CC3)nc2)nn2c1OCCC2` [Example 15, 2-[6-(Cyclopropylamino)pyridin-3-yl]-N-[(3S)-9-fluoro-2-oxo-5-phenyl-1,3-dihydro-1,4-benzodiazepin-3-yl]-6,7-dihydro-5H-pyrazolo[5,1-b][1,3]oxazine-3-carboxamide], the EC50 in data set [1] came to 0.03 µM. In addition, the CC50 in data set [2] is over 25 µM.

As to `O=C(N[C@H]1N=C(c2ccccc2)c2ccccc2NC1=O)c1c(-c2cccnc2)nn2c1OCCC2` [Example 16, N-[(3S)-2-Oxo-5-phenyl-1,3-dihydro-1,4-benzodiazepin-3-yl]-2-pyridin-3-yl-6,7-dihydro-H-pyrazolo[5,1-b][1,3]oxazine-3-carboxamide], the EC50 in data set [1] is 0.454 µM. In addition, the CC50 in data set [2] is over 25 µM.

Turning to `O=C(N[C@H]1N=C(c2ccccc2)c2cccc(F)c2NC1=O)c1c(-c2cccnc2)nn2c1OCCC2` [Example 17, N-[(3S)-9-Fluoro-2-oxo-5-phenyl-1,3-dihydro-1,4-benzodiazepin-3-yl]-2-pyridin-3-yl-6,7-dihydro-5H-pyrazolo[5,1-b][1,3]oxazine-3-carboxamide], the EC50 in data set [1] was 0.18 µM. For the same compound, the CC50 in data set [2] was over 25 µM.

In the case of `O=C(N[C@H]1N=C(c2ccccc2)c2cccc(F)c2NC1=O)c1c(-c2ccc(C3CC3)nc2)nn2c1OCCC2` [Example 18, 2-(6-Cyclopropylpyridin-3-yl)-N-[(3S)-9-fluoro-2-oxo-5-phenyl-1,3-dihydro-1,4-benzodiazepin-3-yl]-6,7-dihydro-5H-pyrazolo[5,1-b][1,3]oxazine-3-carboxamide], the EC50 in data set [1] came to 0.096 µM. Moreover, the CC50 in data set [2] is over 25 µM.

Consider `CC(C)Nc1ccc(-c2nn3c(c2C(=O)N[C@H]2N=C(c4ccccc4)c4cccc(F)c4NC2=O)OCCC3)cn1` [Example 19, N-[(3S)-9-fluoro-2-oxo-5-phenyl-1,3-dihydro-1,4-benzodiazepin-3-yl]-2-[6-(propan-2-ylamino)pyridin-3-yl]-6,7-dihydro-5H-pyrazolo[5,1-b][1,3]oxazine-3-carboxamide], for which the EC50 in data set [1] came to 0.031 µM. Besides, the CC50 in data set [2] was over 25 µM.

As to `CCNc1ccc(-c2nn3c(c2C(=O)N[C@H]2N=C(c4ccccc4)c4cccc(F)c4NC2=O)OCCC3)cn1` [Example 20, 2-[6-(Ethylamino)pyridin-3-yl]-N-[(3S)-9-fluoro-2-oxo-5-phenyl-1,3-dihydro-1,4-benzodiazepin-3-yl]-6,7-dihydro-5H-pyrazolo[5,1-b][1,3]oxazine-3-carboxamide], the EC50 in data set [1] is 0.042 µM. Also, in data set [2], the CC50 was over 25 µM.
